According to ChEMBL document CHEMBL1240490, “Novel carbamates as orally active acetylcholinesterase inhibitors found to improve scopolamine-induced cognition impairment: pharmacophore-based virtual screening, synthesis, and pharmacology” (J Med Chem, 2010):
The source made the active and inactive calls. The rule behind the calls is not given here.

Legend:
Acetylcholinesterase [1] = biological target: T1, Acetylcholinesterase (Homo sapiens, UniProt P22303)
Description: (§1) Inhibition of human AChE by Ellmans test

Acetylcholinesterase [2] = biological target: T1, Acetylcholinesterase; remark: listed apart in the source
Description: as §1

Caenorhabditis elegans = assay: Inhibition of ACh release in Caenorhabditis elegans N2 N2; format: functional, organism-based

T1 sequence (P22303 whole entry): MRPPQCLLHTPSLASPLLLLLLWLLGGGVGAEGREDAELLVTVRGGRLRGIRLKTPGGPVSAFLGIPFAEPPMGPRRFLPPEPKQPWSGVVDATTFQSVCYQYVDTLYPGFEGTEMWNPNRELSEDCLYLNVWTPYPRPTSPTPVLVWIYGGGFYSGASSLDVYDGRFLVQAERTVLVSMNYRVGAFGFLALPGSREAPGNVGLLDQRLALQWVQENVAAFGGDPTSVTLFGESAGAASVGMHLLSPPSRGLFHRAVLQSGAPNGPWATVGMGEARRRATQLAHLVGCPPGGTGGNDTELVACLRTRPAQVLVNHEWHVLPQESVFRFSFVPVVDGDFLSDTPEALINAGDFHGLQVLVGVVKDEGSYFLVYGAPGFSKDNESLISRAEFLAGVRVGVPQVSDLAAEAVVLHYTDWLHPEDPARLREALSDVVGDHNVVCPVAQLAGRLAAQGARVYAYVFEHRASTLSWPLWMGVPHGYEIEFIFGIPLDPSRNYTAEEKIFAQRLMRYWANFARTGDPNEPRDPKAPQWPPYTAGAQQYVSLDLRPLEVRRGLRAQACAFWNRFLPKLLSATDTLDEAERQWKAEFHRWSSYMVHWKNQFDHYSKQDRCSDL

SMILES | logIC50 (Acetylcholinesterase [1]) | IC50 (Acetylcholinesterase [2]) [nM] | inhibition (Caenorhabditis elegans)
CNC(=O)Oc1ccc2c(c1)[C@]1(C)CCNC1N2 (stereo partly drawn) | 3.17 | – | –
CC(C)c1ccc(NC(=O)Oc2ccc3c(c2)[C@]2(C)CCN(C)C2N3)cc1 (stereo partly drawn) | 3.31 | – | –
Cc1ccc(NC(=O)Oc2ccc3c(c2)[C@]2(C)CCN(C)[C@@H]2N3C)cc1C | 1.49 | – | –
CCNC(=O)Oc1ccc2c(c1)C1(C)COC(O2)O1 (stereo not drawn) | 2.59 | 387 | –
CN1CC[C@@]2(C)c3cc(OC(=O)Nc4ccccc4)ccc3N(Cc3ccccc3)[C@@H]12 | 2.39 | 245 | –
Cc1ccccc1NC(=O)Oc1ccc2c(c1)[C@]1(C)CCN[C@@H]1N2 | 2.92 | 830 | –
Cc1ccc(NC(=O)Oc2ccc3c(c2)[C@]2(C)CCN(C)[C@@H]2N3C)c(C)c1 | 1.15 | – | –
C[C@H](c1cccc(OC(=O)N(C)C)c1)N1CCCCC1 | – | 32 | –
Cc1ccc(C)c(NC(=O)Oc2ccc3c(c2)[C@]2(C)CCN(C)[C@@H]2N3C)c1 | 1.42 | – | –
CNC(=O)Oc1ccc2c(c1)CC[C@@H]1CCN(C)[C@H]21 | – | 17.3 | –
Cc1ccccc1NC(=O)Oc1ccc2c(c1)[C@]1(C)CCO[C@@H]1N2C | 1.11 | – | –
CNC(=O)Oc1ccc2c(c1)[C@@]1(C)CCN(C)C1N2 (stereo partly drawn) | 1.75 | – | –
CNC(=O)Oc1ccc2c(c1)[C@]1(C)CCN(Cc3ccccc3)[C@@H]1N2Cc1ccccc1 | 3.55 | 3560 | –
C[C@@]12CCN(Cc3ccccc3)[C@@H]1N(Cc1ccccc1)c1ccc(OC(=O)Nc3ccccc3)cc12 | 4.61 | 41100 | –
C[C@]12CCNC1Nc1ccc(OC(=O)Nc3ccccc3)cc12 (stereo partly drawn) | 2.36 | – | –
CNC(=O)Oc1ccc2c(c1)[C@@]1(C)CCN(C)C1N2Cc1ccccc1 (stereo partly drawn) | 3.45 | – | –
CN(C)Cc1cc2c(cc1OC(=O)Nc1ccccc1)[C@]1(C)CCN(C)[C@@H]1N2C | 2.89 | 780 | –
CCNC(=O)Oc1ccc2c(c1)[C@]1(C)CCN(C)[C@@H]1N2C | 1.97 | – | –
CN1CC[C@]2(C)c3cc(OC(=O)Nc4ccccc4)ccc3N(C)C12 (stereo partly drawn) | 3.54 | – | –
CCNC(=O)Oc1ccc2c(c1)C1(C)COC(C1)O2 (stereo not drawn) | 2.56 | – | –

SMILES | logIC50 (Acetylcholinesterase [1]) | IC50 (Acetylcholinesterase [2]) [nM] | inhibition (Caenorhabditis elegans)
Cc1ccc(NC(=O)Oc2ccc3c(c2)[C@]2(C)CCN(C)[C@@H]2N3C)cc1 | 2.15 | – | –
CNC(=O)Oc1ccc2c(c1)[C@]1(C)CCN(Cc3ccccc3)C1N2Cc1ccccc1 (stereo partly drawn) | 3.04 | – | –
CN(C(=O)Oc1ccc2c(c1)[C@]1(C)CCN(C)[C@@H]1N2C)c1ccccc1 | 2.46 | 285 | –
CC(C)c1ccc(NC(=O)Oc2ccc3c(c2)[C@]2(C)CCNC2N3C)cc1 (stereo partly drawn) | 2.51 | – | –
Cc1cc(C)cc(NC(=O)Oc2ccc3c(c2)[C@]2(C)CCN(C)[C@@H]2N3C)c1 | 1.89 | – | –
Cc1ccccc1NC(=O)Oc1ccc2c(c1)[C@]1(C)CCN(Cc3ccccc3)C1N2Cc1ccccc1 (stereo partly drawn) | 3.25 | – | –
Cc1ccccc1NC(=O)Oc1ccc2c(c1)C1(C)COC(C1)O2 (stereo not drawn) | 1.75 | – | –
Cc1ccccc1NC(=O)Oc1ccc2c(c1)[C@]1(C)CCN(CCc3ccccc3)C1N2C (stereo partly drawn) | 2.74 | – | –
CNC(=O)Oc1ccc2c(c1)[C@]1(C)CCN(C)[C@@H]1N2 | 1.75 | 56.7 | –
Cc1cc(C)c(NC(=O)Oc2ccc3c(c2)[C@]2(C)CCN(C)[C@@H]2N3C)c(C)c1 | 3.11 | – | –
CNC(=O)Oc1ccc2c(c1)SC[C@@H]1CCN(C)[C@H]21 | – | 8.11 | –
CC(C)c1ccc(NC(=O)Oc2ccc3c(c2)[C@]2(C)CCN(C)C2N3Cc2ccccc2)cc1 (stereo partly drawn) | 4.11 | – | –
Cc1ccccc1NC(=O)Oc1ccc2c(c1)[C@]1(C)CCNC1N2C (stereo partly drawn) | 1.23 | – | –
CN1CC[C@@]2(C)c3cc(OC(=O)N4CCc5ccccc5C4)ccc3N(C)[C@@H]12 [QUILOSTIGMINE] | – | 148 | –
CN1CC[C@]2(C)c3cc(OC(=O)Nc4ccccc4)ccc3NC12 (stereo partly drawn) | 3.75 | – | –
O=C(Nc1ccccc1Cl)Oc1ccc2c(c1)CCCN2Cc1ccccc1 | – | 3310 | –
CC(C)c1ccc(NC(=O)Oc2ccc3c(c2)[C@]2(C)CCO[C@@H]2N3C)cc1 | 3.59 | – | –
CCCCCCNC(=O)Oc1ccc2c(c1)CCCN2Cc1ccccc1 | – | – | Active
CN1CC[C@@]2(C)c3cc(OC(=O)Nc4ccccc4)ccc3N(C=O)[C@@H]12 | 2.52 | 330 | –
CCNC(=O)Oc1ccc2c(c1)[C@]1(C)CCO[C@@H]1N2C | 1.91 | – | –

SMILES | logIC50 (Acetylcholinesterase [1]) | IC50 (Acetylcholinesterase [2]) [nM] | inhibition (Caenorhabditis elegans)
CC(C)c1ccccc1NC(=O)Oc1ccc2c(c1)[C@]1(C)CCN(C)[C@@H]1N2C | 1.18 | – | –
CNC(=O)Oc1ccc2c(c1)c(C)cn2Nc1ccncc1F | – | 100 | –
CCc1cccc(CC)c1NC(=O)Oc1ccc2c(c1)[C@]1(C)CCN(C)[C@@H]1N2C | 2.84 | 690 | –
CN1CC[C@]2(C)c3cc(OC(=O)Nc4ccccc4)ccc3N(Cc3ccccc3)C12 (stereo partly drawn) | 4.05 | – | –
Cc1ccccc1NC(=O)Oc1ccc2c(c1)[C@]1(C)CCN(C)C1N2Cc1ccccc1 (stereo partly drawn) | 2 | – | –
Cc1ccccc1NC(=O)Oc1ccc2c(c1)[C@]1(C)CCN(C)[C@@H]1N2 | 1.6 | 40 | –
CNC(=O)Oc1ccc2c(c1)[C@]1(C)CCO[C@@H]1N2C | 1.43 | – | –
CC(C)c1ccc(NC(=O)Oc2ccc3c(c2)C2(C)COC(O3)O2)cc1 (stereo not drawn) | 3.63 | 4300 | –
Cc1cccc(NC(=O)Oc2ccc3c(c2)[C@]2(C)CCN(C)[C@@H]2N3C)c1C | 1.36 | – | –
CNC(=O)Oc1ccc2c(c1)[C@]1(C)CCN(C)[C@@H]1N2Cc1ccccc1 | 2.21 | 161 | –
CCOC(=O)C1=CN(C)c2cccc(OC(=O)N(C)C)c2C1 | – | 7 | –
Cc1ccccc1NC(=O)Oc1ccc2c(c1)[C@]1(C)CCN(C)[C@@H]1N2C [TOLSERINE] | 1 | 40 | –
CNC(=O)Oc1ccc2c(c1)[C@]1(C)CCN(C)C1N2Cc1ccccc1 (stereo partly drawn) | 2.21 | – | –
CNC(=O)Oc1ccc2c(c1)[C@]1(C)CCN(C)[C@@H]1N2C=O | 3.4 | 2500 | –
CNC(=O)Oc1ccc2c(c1)OC[C@@H]1CCN(C)[C@H]21 | – | 30 | –
CCc1ccccc1NC(=O)Oc1ccc2c(c1)[C@]1(C)CCN(C)[C@@H]1N2C | 1 | – | –
Cc1cccc(C)c1NC(=O)Oc1ccc2c(c1)[C@]1(C)CCN(C)[C@@H]1N2C | 2.89 | – | –
Cc1cc2c(cc1OC(=O)Nc1ccccc1)[C@]1(C)CCN(C)[C@@H]1N2C | 2.41 | – | –
